Data from ChEMBL document CHEMBL3421625, “Discovery and optimization of novel antagonists to the human neurokinin-3 receptor for the treatment of sex-hormone disorders (Part I)” (J Med Chem, 2015).
Values after ≈ are worked out from the molar mass of the structure shown.

Legend:
Cytochrome P450 2C19 = Cytochrome P450 2C19 (Homo sapiens, UniProt P33261); assay: Inhibition of CYP2C19 (unknown origin) by luciferase reporter assay in presence of NADPH regeneration system
[1] = Lipophilicity, log D of the compound at pH 7.4; type: physicochemical; conditions: buffer, read-out: logD
Cytochrome P450 2C9 = Cytochrome P450 2C9 (Homo sapiens, UniProt P11712); assay: Inhibition of CYP2C9 (unknown origin) by luciferase reporter assay in presence of NADPH regeneration system; type: ADME
Cytochrome P450 2C9, sequence (P11712 whole entry): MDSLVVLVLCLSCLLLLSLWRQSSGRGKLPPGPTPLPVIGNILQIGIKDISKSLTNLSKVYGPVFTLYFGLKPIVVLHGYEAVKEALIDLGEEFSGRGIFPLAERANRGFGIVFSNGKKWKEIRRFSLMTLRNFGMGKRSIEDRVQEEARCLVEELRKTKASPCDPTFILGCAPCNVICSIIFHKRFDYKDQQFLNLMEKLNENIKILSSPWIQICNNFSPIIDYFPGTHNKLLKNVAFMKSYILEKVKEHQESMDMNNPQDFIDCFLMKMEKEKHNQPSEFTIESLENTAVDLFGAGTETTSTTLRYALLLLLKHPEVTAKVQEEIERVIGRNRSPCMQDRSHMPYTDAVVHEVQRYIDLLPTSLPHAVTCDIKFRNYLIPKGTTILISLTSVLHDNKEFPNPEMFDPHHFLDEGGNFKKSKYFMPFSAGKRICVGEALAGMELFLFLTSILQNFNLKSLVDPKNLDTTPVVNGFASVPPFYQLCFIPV

Cytochrome P450 2D6 = Cytochrome P450 2D6 (Homo sapiens, UniProt P10635); assay: Inhibition of CYP2D6 (unknown origin) by luciferase reporter assay in presence of NADPH regeneration system; type: ADME
Cytochrome P450 2D6, sequence (P10635 whole entry): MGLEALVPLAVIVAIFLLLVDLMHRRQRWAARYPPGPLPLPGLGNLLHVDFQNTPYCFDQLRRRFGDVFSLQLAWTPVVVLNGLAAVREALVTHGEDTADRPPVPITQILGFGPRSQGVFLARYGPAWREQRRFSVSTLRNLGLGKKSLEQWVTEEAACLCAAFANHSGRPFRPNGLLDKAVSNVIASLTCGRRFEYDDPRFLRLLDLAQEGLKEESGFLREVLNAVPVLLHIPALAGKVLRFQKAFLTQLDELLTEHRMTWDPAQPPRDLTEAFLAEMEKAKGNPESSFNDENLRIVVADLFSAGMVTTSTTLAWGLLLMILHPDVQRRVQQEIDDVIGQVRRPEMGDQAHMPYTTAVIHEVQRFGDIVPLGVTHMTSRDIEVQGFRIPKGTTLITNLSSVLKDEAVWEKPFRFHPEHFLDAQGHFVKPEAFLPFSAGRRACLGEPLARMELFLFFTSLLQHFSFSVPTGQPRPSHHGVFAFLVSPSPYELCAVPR

[2] = Solubility of the compound in PBS buffer at pH 7.4 by shake-flask method; type: physicochemical
[3] = molecular target: Voltage-gated inwardly rectifying potassium channel KCNH2 (Homo sapiens, UniProt Q12809)
Voltage-gated inwardly rectifying potassium channel KCNH2, sequence (Q12809 whole entry): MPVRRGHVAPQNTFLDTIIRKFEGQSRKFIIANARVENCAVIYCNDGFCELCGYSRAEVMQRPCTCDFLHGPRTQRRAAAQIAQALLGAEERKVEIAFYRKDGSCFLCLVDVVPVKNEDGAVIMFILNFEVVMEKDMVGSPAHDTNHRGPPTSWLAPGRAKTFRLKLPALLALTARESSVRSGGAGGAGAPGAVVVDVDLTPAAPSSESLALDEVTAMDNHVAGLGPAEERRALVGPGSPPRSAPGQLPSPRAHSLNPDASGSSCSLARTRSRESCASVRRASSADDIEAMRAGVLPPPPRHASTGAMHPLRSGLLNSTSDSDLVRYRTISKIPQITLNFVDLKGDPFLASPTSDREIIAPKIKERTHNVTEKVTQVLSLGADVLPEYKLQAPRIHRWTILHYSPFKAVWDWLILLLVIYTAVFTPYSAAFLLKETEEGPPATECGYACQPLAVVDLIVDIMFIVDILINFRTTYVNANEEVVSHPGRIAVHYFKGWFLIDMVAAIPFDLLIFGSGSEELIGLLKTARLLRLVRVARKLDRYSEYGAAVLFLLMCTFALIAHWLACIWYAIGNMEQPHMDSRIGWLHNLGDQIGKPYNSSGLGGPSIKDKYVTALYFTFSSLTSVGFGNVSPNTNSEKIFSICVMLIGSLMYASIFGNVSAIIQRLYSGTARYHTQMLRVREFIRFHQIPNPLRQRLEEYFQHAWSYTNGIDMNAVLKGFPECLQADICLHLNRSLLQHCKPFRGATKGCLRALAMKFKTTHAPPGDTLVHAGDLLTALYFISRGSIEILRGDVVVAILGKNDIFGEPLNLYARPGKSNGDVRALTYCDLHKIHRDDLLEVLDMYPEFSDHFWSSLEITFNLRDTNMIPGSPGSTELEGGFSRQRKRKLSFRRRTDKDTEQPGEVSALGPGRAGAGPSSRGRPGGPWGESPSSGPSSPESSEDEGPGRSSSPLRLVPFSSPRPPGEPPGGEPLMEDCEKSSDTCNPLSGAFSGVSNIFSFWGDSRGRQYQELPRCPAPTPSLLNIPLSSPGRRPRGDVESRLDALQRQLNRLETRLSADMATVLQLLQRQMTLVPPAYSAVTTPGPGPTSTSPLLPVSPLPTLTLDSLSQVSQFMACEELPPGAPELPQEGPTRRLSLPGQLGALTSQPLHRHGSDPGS
Description: Inhibition of human ERG expressed in HEK293 cells after 5 mins by patch-clamp assay

Neuromedin-K receptor [4] = molecular target: T1, Neuromedin-K receptor (Homo sapiens, UniProt P29371)
T1 sequence (P29371 whole entry): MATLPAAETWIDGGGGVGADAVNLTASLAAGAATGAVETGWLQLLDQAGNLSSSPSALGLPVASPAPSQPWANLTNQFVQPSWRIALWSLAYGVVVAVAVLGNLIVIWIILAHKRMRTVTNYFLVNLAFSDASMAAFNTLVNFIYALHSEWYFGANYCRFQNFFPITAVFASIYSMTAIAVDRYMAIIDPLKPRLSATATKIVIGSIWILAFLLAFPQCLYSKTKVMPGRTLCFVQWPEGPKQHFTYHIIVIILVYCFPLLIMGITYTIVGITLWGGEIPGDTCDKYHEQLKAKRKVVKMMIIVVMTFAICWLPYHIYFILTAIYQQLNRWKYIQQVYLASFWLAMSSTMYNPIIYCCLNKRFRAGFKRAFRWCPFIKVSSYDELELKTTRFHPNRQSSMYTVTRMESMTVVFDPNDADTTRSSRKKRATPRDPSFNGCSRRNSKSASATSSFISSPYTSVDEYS

Cytochrome P450 1A2 = molecular target: T2, Cytochrome P450 1A2 (Homo sapiens, UniProt P05177); assay: Inhibition of CYP1A2 (unknown origin) by luciferase reporter assay in presence of NADPH regeneration system; type: ADME
T2 sequence (P05177 whole entry): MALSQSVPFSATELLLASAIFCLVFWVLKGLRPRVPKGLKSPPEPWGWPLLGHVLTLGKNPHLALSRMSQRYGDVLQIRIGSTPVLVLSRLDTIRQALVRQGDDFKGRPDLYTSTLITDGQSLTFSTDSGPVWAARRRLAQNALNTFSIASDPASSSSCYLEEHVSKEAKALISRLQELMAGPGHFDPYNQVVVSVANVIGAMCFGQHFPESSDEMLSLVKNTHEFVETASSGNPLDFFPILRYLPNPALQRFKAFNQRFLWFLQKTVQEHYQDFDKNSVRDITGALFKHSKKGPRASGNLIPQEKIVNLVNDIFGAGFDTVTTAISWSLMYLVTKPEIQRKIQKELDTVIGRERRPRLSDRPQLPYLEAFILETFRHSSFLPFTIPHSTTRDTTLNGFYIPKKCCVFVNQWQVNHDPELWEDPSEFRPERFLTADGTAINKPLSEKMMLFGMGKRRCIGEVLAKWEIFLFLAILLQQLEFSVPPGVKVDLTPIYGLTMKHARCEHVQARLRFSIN

Neuromedin-K receptor [5] = molecular target: T1, Neuromedin-K receptor; assay: biochemical
Description: Displacement of [3H]-SB222200 from recombinant human NK3R expressed in CHO cell membranes after 90 mins by scintillation counting analysis

Cytochrome P450 3A4 = Cytochrome P450 3A4 (Homo sapiens, UniProt P08684); assay: Inhibition of CYP3A4 (unknown origin) by luciferase reporter assay in presence of NADPH regeneration system; type: ADME
Cytochrome P450 3A4, sequence (P08684 whole entry): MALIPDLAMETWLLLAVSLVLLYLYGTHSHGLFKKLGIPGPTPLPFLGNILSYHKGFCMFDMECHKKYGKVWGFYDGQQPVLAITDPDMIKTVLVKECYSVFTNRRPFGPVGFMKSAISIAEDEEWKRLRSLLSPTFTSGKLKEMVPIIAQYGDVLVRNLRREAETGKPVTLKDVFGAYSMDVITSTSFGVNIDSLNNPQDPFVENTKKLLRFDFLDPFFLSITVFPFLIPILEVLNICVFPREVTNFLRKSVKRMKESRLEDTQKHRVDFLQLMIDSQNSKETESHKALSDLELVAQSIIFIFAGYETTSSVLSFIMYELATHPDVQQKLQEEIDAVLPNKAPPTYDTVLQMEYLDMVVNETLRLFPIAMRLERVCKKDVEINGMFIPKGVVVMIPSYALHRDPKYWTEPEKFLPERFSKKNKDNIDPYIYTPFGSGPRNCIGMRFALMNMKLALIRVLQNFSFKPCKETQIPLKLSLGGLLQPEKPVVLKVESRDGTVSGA

[6] = Half life in rat liver microsomes; type: ADME
[7] = molecular target: Kappa-type opioid receptor (Homo sapiens) (UniProt P41145); assay: Inhibition of KOR (unknown origin) at 10 uM relative to control
Kappa-type opioid receptor (Homo sapiens), sequence (P41145 whole entry): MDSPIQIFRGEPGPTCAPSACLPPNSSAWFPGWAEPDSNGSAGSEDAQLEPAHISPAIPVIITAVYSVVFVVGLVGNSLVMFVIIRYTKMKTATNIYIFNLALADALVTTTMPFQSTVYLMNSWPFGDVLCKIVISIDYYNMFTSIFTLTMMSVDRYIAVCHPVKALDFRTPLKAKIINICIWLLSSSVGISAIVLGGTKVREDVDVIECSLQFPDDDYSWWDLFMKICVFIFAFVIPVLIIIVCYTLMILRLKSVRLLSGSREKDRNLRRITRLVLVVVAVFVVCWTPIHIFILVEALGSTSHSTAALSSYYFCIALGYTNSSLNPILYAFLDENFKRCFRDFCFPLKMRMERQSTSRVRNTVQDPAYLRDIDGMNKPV

[8] = molecular target: Neuropeptide FF receptor 1 (Homo sapiens) (UniProt Q9GZQ6); assay: Inhibition of NPFF1 (unknown origin) at 10 uM relative to control
Neuropeptide FF receptor 1 (Homo sapiens), sequence (Q9GZQ6 whole entry): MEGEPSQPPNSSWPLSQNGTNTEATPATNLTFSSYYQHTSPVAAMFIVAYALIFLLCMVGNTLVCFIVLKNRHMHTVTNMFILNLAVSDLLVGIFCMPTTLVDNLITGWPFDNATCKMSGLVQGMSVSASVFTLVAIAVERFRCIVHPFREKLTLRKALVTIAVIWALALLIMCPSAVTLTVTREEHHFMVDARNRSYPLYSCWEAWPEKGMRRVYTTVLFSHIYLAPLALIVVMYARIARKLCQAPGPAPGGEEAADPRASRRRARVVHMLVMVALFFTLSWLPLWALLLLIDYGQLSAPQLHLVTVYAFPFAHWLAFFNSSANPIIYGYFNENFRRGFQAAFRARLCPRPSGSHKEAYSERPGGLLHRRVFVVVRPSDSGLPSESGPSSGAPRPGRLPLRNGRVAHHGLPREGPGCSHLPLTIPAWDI

[9] = molecular target: T3, Gonadotropin-releasing hormone receptor (Homo sapiens) (UniProt P30968); assay: Inhibition of GnRH-R (unknown origin) at 10 uM relative to control
T3 sequence (whole entry): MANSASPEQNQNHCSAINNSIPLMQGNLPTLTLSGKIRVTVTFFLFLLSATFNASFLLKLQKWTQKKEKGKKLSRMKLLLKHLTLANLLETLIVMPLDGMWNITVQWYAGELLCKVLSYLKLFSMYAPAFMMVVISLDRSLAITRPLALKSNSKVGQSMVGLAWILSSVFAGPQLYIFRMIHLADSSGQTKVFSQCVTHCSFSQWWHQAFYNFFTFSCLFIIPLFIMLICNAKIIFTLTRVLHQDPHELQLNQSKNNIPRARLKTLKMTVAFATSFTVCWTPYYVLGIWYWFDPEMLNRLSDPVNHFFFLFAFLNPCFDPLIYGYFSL

NK-3 receptor = molecular target: T4, NK-3 receptor (Macaca mulatta, UniProt Q2WGM0)
T4 sequence (Q2WGM0 whole entry): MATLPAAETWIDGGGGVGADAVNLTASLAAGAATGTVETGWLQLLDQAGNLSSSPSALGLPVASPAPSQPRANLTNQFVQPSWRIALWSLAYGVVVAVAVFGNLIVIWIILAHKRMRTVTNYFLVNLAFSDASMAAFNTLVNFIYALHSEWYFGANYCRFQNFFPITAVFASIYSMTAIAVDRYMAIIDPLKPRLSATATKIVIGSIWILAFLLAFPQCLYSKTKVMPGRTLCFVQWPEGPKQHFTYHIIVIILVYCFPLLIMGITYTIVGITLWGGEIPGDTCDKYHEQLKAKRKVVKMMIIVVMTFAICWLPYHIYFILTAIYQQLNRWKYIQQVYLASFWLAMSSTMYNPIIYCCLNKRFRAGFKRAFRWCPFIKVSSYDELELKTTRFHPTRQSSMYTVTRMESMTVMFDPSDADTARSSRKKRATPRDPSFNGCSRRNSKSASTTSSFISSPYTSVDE
Description: Displacement of [3H]-SB222200 from monkey NK3R after 90 mins by scintillation counting analysis

Substance-K receptor = molecular target: T5, Substance-K receptor (Homo sapiens, UniProt P21452); assay: Displacement of [125I]-neurokinin A from human NK2R after 90 mins by scintillation counting analysis
T5 sequence (P21452 whole entry): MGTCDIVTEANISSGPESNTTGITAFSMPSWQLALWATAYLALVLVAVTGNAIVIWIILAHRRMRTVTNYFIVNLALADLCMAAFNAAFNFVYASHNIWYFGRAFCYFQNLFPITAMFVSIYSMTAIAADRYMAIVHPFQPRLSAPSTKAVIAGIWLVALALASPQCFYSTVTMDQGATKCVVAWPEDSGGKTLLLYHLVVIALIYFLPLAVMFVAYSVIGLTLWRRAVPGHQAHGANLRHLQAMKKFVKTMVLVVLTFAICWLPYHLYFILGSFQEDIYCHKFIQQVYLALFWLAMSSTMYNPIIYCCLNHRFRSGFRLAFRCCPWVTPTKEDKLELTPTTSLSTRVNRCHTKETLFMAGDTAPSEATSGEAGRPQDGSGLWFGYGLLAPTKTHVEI

Substance-P receptor = Substance-P receptor (Homo sapiens, UniProt P25103)
Substance-P receptor, sequence (P25103 whole entry): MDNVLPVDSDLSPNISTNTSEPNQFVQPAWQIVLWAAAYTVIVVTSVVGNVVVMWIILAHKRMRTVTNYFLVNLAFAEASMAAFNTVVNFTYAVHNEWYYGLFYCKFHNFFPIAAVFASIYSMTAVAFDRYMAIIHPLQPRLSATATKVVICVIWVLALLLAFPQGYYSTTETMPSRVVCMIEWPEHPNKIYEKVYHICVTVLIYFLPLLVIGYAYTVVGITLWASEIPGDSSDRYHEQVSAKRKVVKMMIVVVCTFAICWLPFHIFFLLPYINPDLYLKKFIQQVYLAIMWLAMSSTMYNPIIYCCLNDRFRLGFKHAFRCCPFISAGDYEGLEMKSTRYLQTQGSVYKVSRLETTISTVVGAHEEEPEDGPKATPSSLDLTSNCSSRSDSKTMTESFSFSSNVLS
Description: Displacement of [3H]-Substance P from human NK1R after 90 mins by scintillation counting analysis

Cytochrome P450 2C19, sequence (P33261 whole entry): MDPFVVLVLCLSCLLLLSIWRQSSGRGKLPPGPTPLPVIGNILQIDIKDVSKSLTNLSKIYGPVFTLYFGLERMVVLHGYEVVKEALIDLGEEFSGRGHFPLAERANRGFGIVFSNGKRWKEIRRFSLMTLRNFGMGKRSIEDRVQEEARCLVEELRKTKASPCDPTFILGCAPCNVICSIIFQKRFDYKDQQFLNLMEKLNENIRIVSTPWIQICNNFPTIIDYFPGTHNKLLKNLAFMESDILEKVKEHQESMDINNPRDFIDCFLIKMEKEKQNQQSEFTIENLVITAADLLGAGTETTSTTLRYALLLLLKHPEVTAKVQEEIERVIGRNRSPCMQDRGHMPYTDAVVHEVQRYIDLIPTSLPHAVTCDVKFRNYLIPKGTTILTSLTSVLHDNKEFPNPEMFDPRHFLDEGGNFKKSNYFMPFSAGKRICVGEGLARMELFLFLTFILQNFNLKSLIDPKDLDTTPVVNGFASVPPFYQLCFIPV

Row | Compound | IC50 (Cytochrome P450 2C19) | logD [1] | IC50 (Cytochrome P450 2C9) | IC50 (Cytochrome P450 2D6) | solubility thermodynamic [2] | IC50 [3] | IC50 (Neuromedin-K receptor [4]) | IC50 (Cytochrome P450 1A2) | Ki (Neuromedin-K receptor [5]) | IC50 (Cytochrome P450 3A4) | half-life [6] | inhibition [7] | inhibition [8] | inhibition [9] | Ki (NK-3 receptor) | Ki (Substance-K receptor) | Ki (Substance-P receptor)
1 | Cc1nc(-c2nnc3n2CCN(C(=O)c2ccc(-c4cccs4)cc2)C3)cs1 | 15 µM | 2.9 | 19 µM | > 100 µM | 172 µM (≈ 70.1 µg/mL) | 27 µM | 0.0794 µM | 19 µM | 0.0794 µM | 30 µM | – | – | – | – | – | – | –
2 | N#CC(c1ccccn1)c1ccnc(N2CCN(C(=O)c3ccc(F)cc3)CC2)n1 (stereo not given) | < 5 µM | 3.4 | < 5 µM | < 5 µM | 1.3 µM (≈ 0.523 µg/mL) | – | 0.109 µM | < 5 µM | 0.076 µM | – | 13 min | – | – | – | – | – | –
3 | Cc1nsc(-c2nnc3n2CCN(C(=O)c2ccc(-c4cccs4)cc2)[C@@H]3C)n1 | – | – | – | – | – | – | – | – | – | – | – | 42% | 24% | 35% | 0.00631 µM | 12.6 µM | 12.6 µM
